“And” between values parts separate entries of the source, which are not always exact repeats. Equal entries are not always repeated.
Legend:
[1] = pKa of amine lipid by TNS fluorescence; type: physicochemical; conditions: probe TNS (6-(p-toluidino)-2-naphthalenesulfonic acid sodium salt), unformulated amine lipid in ethanol, sodium phosphate buffers -9.0
Outline: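 pKa derived from a sigmoidal fit of normalized TNS fluorescence (321 nm excitation, 448 nm emission) versus pH. Lipid from ethanol stock diluted to about 100 μM final in 0.1 M phosphate buffers, pH 4.5–9.0.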

[2] = LNP average particle size and polydispersity by dynamic light scattering; type: physicochemical
Outline: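 LNPs were diluted in PBS to a count rate of about 200-400 kcps and measured by DLS on a Zetasizer. Size is the intensity-weighted Z-average diameter, reported with number-average diameter, and the polydispersity index describes the spread of sizes around the mean.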

[3] = RNA encapsulation efficiency of LNP (Ribogreen fluorescence assay); type: physicochemical; conditions: for % E: Table 13, LNP sgRNA:Cas9 mRNA 1:2 w/w
Outline: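 LNP samples diluted in 1× TE with or without 0.2% Triton-X 100 for total or free RNA, stained ~10 min at room temperature in the dark with RiboGreen; fluorescence ex 488/em 525 nm against RNA standard curves. Encapsulation efficiency = (Total RNA−Free RNA)/Total RNA.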

mouse TTR = test: Serum TTR ELISA in mice after LNP delivery; type: in vivo
Outline: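 Mouse TTR in serum was quantified by ELISA (samples diluted e.g. 10,000- and/or 2,500-fold) 6–7 days after dosing CD-1 females with LNP, typically 0.1 mpk. Values are reported relative to vehicle-treated controls (%).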

[4] = LNP with the compound as amine lipid, Expt. 8, composition ratio (mol %) 50/9/38/3 for Cmpnd 49, 50/10/38.5/1.5 for the others
[5] = Table 4, LNP with G00282 sgRNA:Cas9 mRNA 1:1 w/w, N/P 6.0
[6] = Table 3, guide G282, CD-1 female mice, 0.1 mpk i.v., Exp. 1, 8, 9, 10
[7] = Table 3, guide G282, CD-1 female mice, 0.1 mpk i.v., percentage of vehicle control (TSS)
[8] = mouse serum, relative to TSS control of same experiment, dose 0.03 mpk
[9] = mouse serum, relative to TSS control of same experiment, dose 0.1 mpk
[10] = LNP with the compound as amine lipid, Expt. 1, composition ratio (mol %) 50/9/38/3 for Cmpnd 49, 50/10/38.5/1.5 for the others
[11] = LNP with the compound as amine lipid, Expt. 3, composition ratio (mol %) 50/9/38/3 for Cmpnd 49, 50/10/38.5/1.5 for the others
[12] = Table 13, LNP sgRNA:Cas9 mRNA 1:2 w/w, N/P 6.0
[13] = LNP with the compound as amine lipid, Expt. 4, composition ratio (mol %) 50/9/38/3 for Cmpnd 49, 50/10/38.5/1.5 for the others
[14] = LNP with the compound as amine lipid, Expt. 2, composition ratio (mol %) 50/9/39.5/3 for Cmpnd 49, 50/9/39.5/1.5 for the others
[15] = LNP with the compound as amine lipid, Expt. 7, composition ratio (mol %) 50/9/38/3 for Cmpnd 49, 50/10/38.5/1.5 for the others
[16] = Table 10, LNP with G00534 sgRNA:Cas9 mRNA 1:2 w/w
[17] = LNP with the compound as amine lipid, Expt. 5, composition ratio (mol %) 50/10/38.5/1.5
[18] = LNP with the compound as amine lipid, Expt. 6, composition ratio (mol %) 50/9/38/3 for Cmpnd 49, 50/10/38.5/1.5 for the others
[19] = LNP with the compound as amine lipid, Expt. 9, composition ratio (mol %) 50/9/38/3 for Cmpnd 49, 50/10/38.5/1.5 for the others
[20] = LNP with the compound as amine lipid, Expt. 10, composition ratio (mol %) 50/9/38/3 for Cmpnd 49, 50/10/38.5/1.5 for the others
[21] = Table 6, LNP with G00282 sgRNA:Cas9 mRNA 1:1 w/w

## CCCCC/C=C\C/C=C\CCCCCCCC(=O)OCC(COC(=O)CCCCCCC/C=C\C/C=C\CCCCC)OC(=O)CCC(CCCCCCCCCCCC)OC(=O)NCC1CCCN1C (stereo not shown) [Compound 9, 2-((4-((((1-methylpyrrolidin-2-yl)methyl)carbamoyl)oxy)hexadecanoyl)oxy) propane-1,3-diyl (9Z,9′Z,12Z,12′Z)-bis(octadeca-9,12-dienoate)]
[1]
  pKa: 6.32
[2]; [4]
  Num Ave Size (nm): 48.82 nm
  PDI: 0.074
  Z-Ave Size (nm): 64.83 nm
[2]; [5]
  Num Ave Size (nm): 59.99 nm
  PDI: 0.033
  Z-Ave Size (nm): 74.83 nm
[3]; [4]
  Encapsulation (%): 98%
[3]; [5]
  Encapsulation (%): 97%
Mouse TTR; [6]
  Serum TTR: 339 µg/mL
Mouse TTR; [7]
  Serum TTR % TSS: 38% TSS
Mouse TTR; [8]
  Serum TTR % TSS: 114.02 % TSS
Mouse TTR; [9]
  Serum TTR % TSS: 103.19 % TSS

## CCCCC/C=C\C/C=C\CCCCCCCC(=O)OCC(COC(=O)CCCCCCC/C=C\C/C=C\CCCCC)OC(=O)CCC(CCCCCCCCCCCC)OC(=O)OCCCN(C)C (stereo not shown) [Compound 1, 2-((4-(((3-(dimethylamino)propoxy)carbonyl)oxy)hexadecanoyl)oxy)propane-1,3-diyl (9Z,9′Z,12Z,12′Z)-bis(octadeca-9,12-dienoate)]
[1]
  pKa: 6.35
[2]; [10]
  Num Ave Size (nm): 54.84 nm
  PDI: 0.04
  Z-Ave Size (nm): 68.63 nm
[3]; [10]
  Encapsulation (%): 99%
Mouse TTR; [6]
  Serum TTR: 671 µg/mL
Mouse TTR; [7]
  Serum TTR % TSS: 76% TSS
Mouse TTR; [9]
  Serum TTR % TSS: 48.49 % TSS

## CCCCC/C=C\C/C=C\CCCCCCCC(=O)OCC(COC(=O)CCCCCCC/C=C\C/C=C\CCCCC)OC(=O)CCC(CCCCC)OC(=O)NCCN1CCCC1 (stereo not shown) [Compound 72, 2-((4-(((2-(pyrrolidin-1l-yl)ethyl)carbamoyl)oxy)nonanoyl)oxy)propane-1,3-diyl (9Z,9′Z,12Z,12′Z)-bis(octadeca-9,12-dienoate)]
[1]
  pKa: 7.01
[2]; [11]
  Num Ave Size (nm): 88.38 nm
  PDI: 0.02
  Z-Ave Size (nm): 106.80 nm
[2]; [12]
  Number Average [nm]: 91.47 nm
  PDI: 0.018
  Z-Ave Size (nm): 111.4 nm
[3]; [11]
  Encapsulation (%): 98%
[3]; N/P 6.0
  % E: 94%
Mouse TTR; [8]
  Serum TTR % TSS: 66.92 % TSS
Mouse TTR; [9]
  Serum TTR % TSS: 26.43 % TSS

## CCCCC/C=C\C/C=C\CCCCCCCC(=O)OCC(COC(=O)CCCCCCC/C=C\C/C=C\CCCCC)OC(=O)CCC(CCCCCCCCCCCC)OC(=O)NCCN(C)CC (stereo not shown) [Compound 7, 2-((4-(((2-(ethyl(methyl)amino)ethyl)carbamoyl)oxy)hexadecanoyl)oxy)propane-1,3-diyl (9Z,9′Z,12Z,12′Z)-bis(octadeca-9,12-dienoate)]
[1]
  pKa: 6.36
[2]; [13]
  Num Ave Size (nm): 73.07 nm
  PDI: 0.002
  Z-Ave Size (nm): 87.61 nm
[2]; [5]
  Num Ave Size (nm): 68.39 nm
  PDI: 0.033
  Z-Ave Size (nm): 85.09 nm
[3]; [13]
  Encapsulation (%): 98%
[3]; [5]
  Encapsulation (%): 97%
Mouse TTR; Table 3, guide G282, CD-1 female mice, 0.1 mpk i.v., Exp. 1, 8, 9, 10, 0.1 mg/kg
  Serum TTR: 270 µg/mL and 271 µg/mL
Mouse TTR; Table 3, guide G282, CD-1 female mice, 0.1 mpk i.v., percentage of vehicle control (TSS), 0.1 mg/kg
  Serum TTR % TSS: 31% TSS and 33% TSS
Mouse TTR; [8]
  Serum TTR % TSS: 58% TSS
Mouse TTR; [9]
  Serum TTR % TSS: 10% TSS

## CCCCC/C=C\C/C=C\CCCCCCCC(=O)OCC(COC(=O)CCCCCCC/C=C\C/C=C\CCCCC)OC(=O)CCC(CCCCCC)OC(=O)OCCCN1CCCC1 (stereo not shown) [Compound 45, 2-((4-(((3-(pyrrolidin-1-yl)propoxy)carbonyl)oxy)decanoyl)oxy)propane-1,3-diyl (9Z,9′Z,12Z,12′Z)-bis(octadeca-9,12-dienoate)]
[1]
  pKa: 5.79
[2]; [14]
  Num Ave Size (nm): 85.54 nm
  PDI: 0.021
  Z-Ave Size (nm): 102.70 nm
[2]; [15]
  Num Ave Size (nm): 77.92 nm
  PDI: 0.012
  Z-Ave Size (nm): 95.26 nm
[2]; [16]
  Num Avg Size (nm): 83.48 nm
  PDI: 0.052
  Z-Avg Size (nm): 101.00 nm
[3]; [14]
  Encapsulation (%): 99%
[3]; [15]
  Encapsulation (%): 98%
[3]; [16]
  Encapsulation (%): 95%
Mouse TTR; mouse serum, relative to TSS control of same experiment, dose 0.03 mpk, 0.03 mg/kg
  Serum TTR % TSS: 78.39 % TSS and 43.435 % TSS
Mouse TTR; [9]
  Serum TTR % TSS: 10.09 % TSS

## CCCCC/C=C\C/C=C\CCCCCCCC(=O)OCC(COC(=O)CCCCCCC/C=C\C/C=C\CCCCC)OC(=O)CCC(CCCCCCCC)OC(=O)NCC1CCCN1C (stereo not shown) [Compound 35, 2-((4-((((1-methylpyrrolidin-2-yl)methyl)carbamoyl)oxy)dodecanoyl)oxy) propane-1,3-diyl (9Z,9′Z,12Z,12′Z)-bis(octadeca-9,12-dienoate)]
[1]
  pKa: 6.35
[2]; [4]
  Num Ave Size (nm): 62.82 nm
  PDI: 0.068
  Z-Ave Size (nm): 81.51 nm
[3]; [4]
  Encapsulation (%): 99%
Mouse TTR; [8]
  Serum TTR % TSS: 104.30 % TSS
Mouse TTR; [9]
  Serum TTR % TSS: 99.13 % TSS

## CCCCC/C=C\C/C=C\CCCCCCCC(=O)OCC(COC(=O)CCC(OCCCCCCCC)OCCCCCCCC)COC(=O)OCCCN(CC)CC (stereo not shown) [Compound 49, 3-((4,4-bis(octyloxy)butanoyl)oxy)-2-((((3-(diethylamino)propoxy)carbonyl)oxy)methyl)propyl (9Z,12Z)-octadeca-9,12-dienoate, reference compound]
[2]; [10]
  Num Ave Size (nm): 69.84 nm
  PDI: 0.05
  Z-Ave Size (nm): 87.92 nm
[2]; [14]
  Num Ave Size (nm): 73.13 nm
  PDI: 0.014
  Z-Ave Size (nm): 88.36 nm
[2]; [11]
  Num Ave Size (nm): 63.19 nm
  PDI: 0.03
  Z-Ave Size (nm): 77.07 nm
[2]; [13]
  Num Ave Size (nm): 66.26 nm
  PDI: 0.026
  Z-Ave Size (nm): 81.83 nm
[2]; [17]
  Num Ave Size (nm): 65 nm
  PDI: 0.03
  Z-Ave Size (nm): 83.00 nm
[2]; [18]
  Num Ave Size (nm): 74 nm
  PDI: 0.02
  Z-Ave Size (nm): 90.00 nm
[2]; [15]
  Num Ave Size (nm): 63.19 nm
  PDI: 0.026
  Z-Ave Size (nm): 77.07 nm
[2]; [4]
  Num Ave Size (nm): 69.01 nm
  PDI: 0.026
  Z-Ave Size (nm): 84.47 nm
[2]; [19]
  Num Ave Size (nm): 70 nm
  PDI: 0.04
  Z-Ave Size (nm): 87 nm
[2]; [20]
  Num Ave Size (nm): 75 nm
  PDI: 0.04
  Z-Ave Size (nm): 90 nm
[2]; [5]
  Num Ave Size (nm): 69.51 nm
  PDI: 0.007
  Z-Ave Size (nm): 84.93 nm
[2]; [21]
  Num Ave Size (nm): 69.75 nm
  PDI: 0.011
  Z-Ave Size (nm): 83.63 nm
[2]; [16]
  Num Avg Size (nm): 69.85 nm
  PDI: 0.028
  Z-Avg Size (nm): 87.84 nm
[2]; [12]
  Number Average [nm]: 74.82 nm
  PDI: 0.015
  Z-Ave Size (nm): 93.14 nm
[3]; [10]
  Encapsulation (%): 98%
[3]; [14]
  Encapsulation (%): 98%
[3]; [11]
  Encapsulation (%): 93%
[3]; [13]
  Encapsulation (%): 98%
[3]; [17]
  Encapsulation (%): 98%
[3]; [18]
  Encapsulation (%): 99%
[3]; [15]
  Encapsulation (%): 93%
[3]; [4]
  Encapsulation (%): 98%
[3]; [19]
  Encapsulation (%): 98%
[3]; [20]
  Encapsulation (%): 98%
[3]; [5]
  Encapsulation (%): 98%
[3]; [21]
  Encapsulation (%): 99%
[3]; [16]
  Encapsulation (%): 97%
[3]; N/P 6.0
  % E: 98%
Mouse TTR; Table 7, G00282, CD-1 female mice i.v., dose 0.1 mpk
  Serum TTR: 254 µg/mL
Mouse TTR; Table 7, G00282, CD-1 female mice i.v., dose 0.1 mpk, percentage of vehicle control
  Serum TTR % TSS: 31% TSS
Mouse TTR; Table 7, G00282, CD-1 female mice i.v., dose 0.3 mpk
  Serum TTR: 40 µg/mL
Mouse TTR; Table 7, G00282, CD-1 female mice i.v., dose 0.3 mpk, percentage of vehicle control
  Serum TTR % TSS: 5% TSS

Source: patent publication US12077483B2, “Modified amine lipids” (Intellia Therapeutics, Inc., priority 2018, dated 2024)
